# Test results from patent US20220017512A1 (SHANGHAI ENNOVABIO PHARMACEUTICALS CO., LTD., priority 2018, published 2022).
# What was measured:
# Type in all cases: biochemical
# Recombinant human TRKA = biological target: T1, Recombinant human TRKA (Homo sapiens, UniProt P04629); assay: In vitro activity test on TRKA kinase (HTRF KinEASE TK); settings: 14.68 μM ATP, 40 min
# T1 construct: purchased Carna Biosciences
# How it was run: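 Reaction: 0.2 ng/μL TRKA, 1 μM biotinylated TK substrate, 14.68 μM ATP, 5 mM MgCl2, 1 mM DTT, 1% DMSO, 40 min at room temperature. Compounds tested at 1 μM to 0.05 nM (10-point, 3-fold, duplicate). HTRF 665/620 ratio converted to % inhibition versus no-compound control; IC50 by 4-parameter fit.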
# Recombinant human TRKB = biological target: T2, Recombinant human TRKB (Homo sapiens, UniProt Q16620); assay: In vitro activity test on TRKB kinase (HTRF KinEASE TK); settings: 4.77 μM ATP, 50 min
# T2 construct: purchased Carna Biosciences
# T2 sequence (Q16620 32-822): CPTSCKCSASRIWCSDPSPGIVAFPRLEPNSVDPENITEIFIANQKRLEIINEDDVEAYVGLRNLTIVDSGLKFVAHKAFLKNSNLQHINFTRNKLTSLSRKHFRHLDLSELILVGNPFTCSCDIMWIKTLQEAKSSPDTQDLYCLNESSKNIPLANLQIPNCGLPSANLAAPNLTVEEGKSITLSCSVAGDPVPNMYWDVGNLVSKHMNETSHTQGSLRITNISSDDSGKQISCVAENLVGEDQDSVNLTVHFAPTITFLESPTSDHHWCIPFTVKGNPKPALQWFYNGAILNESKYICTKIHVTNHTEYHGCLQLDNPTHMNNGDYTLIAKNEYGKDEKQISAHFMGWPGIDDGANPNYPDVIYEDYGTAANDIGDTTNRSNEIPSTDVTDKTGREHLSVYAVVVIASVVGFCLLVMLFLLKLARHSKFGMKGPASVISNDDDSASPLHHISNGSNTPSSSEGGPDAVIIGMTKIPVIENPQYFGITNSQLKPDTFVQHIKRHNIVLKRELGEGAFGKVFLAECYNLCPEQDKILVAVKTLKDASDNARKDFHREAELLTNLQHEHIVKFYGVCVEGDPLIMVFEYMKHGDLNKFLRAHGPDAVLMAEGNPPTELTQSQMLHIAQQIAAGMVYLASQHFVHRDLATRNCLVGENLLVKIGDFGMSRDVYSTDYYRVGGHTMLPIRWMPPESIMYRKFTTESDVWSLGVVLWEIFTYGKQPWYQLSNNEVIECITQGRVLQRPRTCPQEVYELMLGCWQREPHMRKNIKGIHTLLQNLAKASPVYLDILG
# How it was run: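 Recombinant human TRKB (0.037 ng/μL) phosphorylated 1 μM biotinylated TK substrate at 4.77 μM ATP, 5 mM MgCl2, 1% DMSO, 50 min at room temperature; compounds 1 μM–0.05 nM. HTRF KinEASE detection overnight; 665/620 ratio converted to inhibition and IC50 from 4-parameter fit.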
# Recombinant human TRKC = biological target: T3, Recombinant human TRKC (Homo sapiens, UniProt Q16288); assay: In vitro activity test on TRKC kinase (HTRF KinEASE TK); settings: 25.64 μM ATP, 40 min
# T3 construct: purchased Carna Biosciences
# T3 sequence (Q16288 32-839): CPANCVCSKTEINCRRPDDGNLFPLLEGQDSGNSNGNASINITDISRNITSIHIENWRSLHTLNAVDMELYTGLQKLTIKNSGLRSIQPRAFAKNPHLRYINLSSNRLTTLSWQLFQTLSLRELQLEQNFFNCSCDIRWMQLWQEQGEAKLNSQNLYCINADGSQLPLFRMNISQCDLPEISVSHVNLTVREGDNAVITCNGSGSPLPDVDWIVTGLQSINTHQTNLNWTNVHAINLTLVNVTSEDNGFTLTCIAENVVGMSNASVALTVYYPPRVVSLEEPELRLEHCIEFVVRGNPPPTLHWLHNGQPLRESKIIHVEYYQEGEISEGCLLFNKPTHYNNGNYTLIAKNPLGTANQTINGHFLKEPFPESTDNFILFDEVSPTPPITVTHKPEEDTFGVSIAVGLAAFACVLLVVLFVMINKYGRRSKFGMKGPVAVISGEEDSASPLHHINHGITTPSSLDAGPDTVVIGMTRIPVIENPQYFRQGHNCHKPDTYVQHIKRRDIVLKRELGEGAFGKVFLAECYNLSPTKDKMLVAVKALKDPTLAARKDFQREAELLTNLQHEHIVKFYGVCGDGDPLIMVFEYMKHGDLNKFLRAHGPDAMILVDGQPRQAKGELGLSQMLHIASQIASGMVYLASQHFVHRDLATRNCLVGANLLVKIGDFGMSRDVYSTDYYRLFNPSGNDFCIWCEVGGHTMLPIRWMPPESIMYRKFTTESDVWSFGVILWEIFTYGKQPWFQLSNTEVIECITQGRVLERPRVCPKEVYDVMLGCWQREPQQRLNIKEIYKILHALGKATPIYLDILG
# How it was run: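 Recombinant human TRKC (0.037 ng/μL) with 1 μM biotinylated TK substrate, 25.64 μM ATP, 5 mM MgCl2, 1 mM DTT, 40 min at room temperature; compound 1 μM to 0.05 nM, 1% DMSO. HTRF 665/620 ratio after overnight detection; IC50 from 4-parameter fit.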
# [1] = biological target: T4, recombinant human TRKA (G595R) (Homo sapiens, UniProt P04629, G595R); assay: In vitro activity test on mutant TRKA (G595R) (HTRF KinEASE TK); settings: 4.5 μM ATP, 30 min
# T4 construct: purchased SignalChem
# T4 sequence (P04629 33-796 G595R): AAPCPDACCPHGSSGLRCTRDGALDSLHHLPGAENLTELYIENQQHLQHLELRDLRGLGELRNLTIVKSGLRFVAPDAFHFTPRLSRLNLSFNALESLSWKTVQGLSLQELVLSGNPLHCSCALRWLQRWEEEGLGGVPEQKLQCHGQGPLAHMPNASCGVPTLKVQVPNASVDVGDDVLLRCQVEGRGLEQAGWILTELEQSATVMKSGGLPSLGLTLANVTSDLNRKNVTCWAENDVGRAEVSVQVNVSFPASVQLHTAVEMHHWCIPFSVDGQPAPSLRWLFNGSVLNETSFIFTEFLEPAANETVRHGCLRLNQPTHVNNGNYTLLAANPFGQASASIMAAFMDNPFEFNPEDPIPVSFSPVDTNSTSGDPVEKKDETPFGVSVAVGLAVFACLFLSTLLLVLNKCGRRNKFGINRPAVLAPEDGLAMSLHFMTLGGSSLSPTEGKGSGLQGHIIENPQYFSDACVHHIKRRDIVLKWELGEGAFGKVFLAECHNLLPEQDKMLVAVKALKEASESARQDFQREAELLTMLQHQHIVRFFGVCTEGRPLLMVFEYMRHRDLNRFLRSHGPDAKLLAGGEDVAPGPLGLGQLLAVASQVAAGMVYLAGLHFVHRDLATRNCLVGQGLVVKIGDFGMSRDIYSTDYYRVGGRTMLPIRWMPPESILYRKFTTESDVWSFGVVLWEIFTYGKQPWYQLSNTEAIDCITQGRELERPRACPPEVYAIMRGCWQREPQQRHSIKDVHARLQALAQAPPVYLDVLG
# How it was run: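 HTRF KinEASE TK format: 0.12 ng/μL recombinant TRKA (G595R), 1 μM biotinylated TK substrate, 4.5 μM ATP, 5 mM MgCl2, 1 mM DTT, 1% DMSO, 30 min at room temperature; detection overnight. IC50 from 10-point 4-fold series (1 μM to 0.004 nM, duplicates), 665/620 ratio, 4-parameter fit.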
# [2] = biological target: T5, recombinant human TRKA (G667C) (Homo sapiens, UniProt P04629, G667C); assay: In vitro activity test on mutant TRKA (G667C) (HTRF KinEASE TK); settings: 5.5 μM ATP, 30 min
# T5 construct: purchased SignalChem
# T5 sequence (P04629 33-796 G667C): as the sequence (P04629 33-796 G595R) above, with R563G, G635C counted along it
# Description: Biological Test Example 2 In Vitro Activity Test on Mutant TRKA (G595R), TRKA (G667C) and TRKC (G623R)
# The recombinant human TRKA (G595R), TRKA (G667C) and TRKC (G623R) proteins were purchased from SignalChem. HTRF kinEASE TK kit was purchased from CisbioBioassays. Synergy Neo 2 of Biotek was used to read the plate.
# The tested compound was subjected to 4-fold serial dilution to reach a final concentration of 1 μM to 0.004 nM (10 concentrates), duplicates for each concentration; and 1% DMSO was present in the detection reaction.
# 0.026 ng/μL TRKA (G667C) kinase, 1 μM TK Substrate-biotin polypeptide substrate, 5.5 μm ATP, 1× enzymatic buffer, 5 mM MgCl2, and 1 mM DTT. The detection plate was White Proxiplate 384-Plus plate (PerkinElmer), and incubated at room temperature for 30 min, the assay volume was 10 μL.
# 10 μL of detection reagent was added to the plate (containing 0.125 μM SA-XL665 and 5 μL 1×TK-Antibody) and incubated overnight at room temperature, and Synergy Neo 2 was used to read the plate.
# The value of 665/620 Ratio minus the value of negative control wells without enzyme, then the obtained value was converted according to the following formula into inhibition rate (%)=(1−Ratiotest/Ratiomax)×100%. Ratiomax was a positive control without tested compound, and Ratiotest was the value of each concentration of different compounds. IC50 (nM) data was obtained by 4 parameter curve fitting (see Table 1).
# T1 sequence (P04629 33-796): as the sequence (P04629 33-796 G595R) above, with R563G counted along it
Compound,IC50 (Recombinant human TRKA) [nM],IC50 (Recombinant human TRKB) [nM],IC50 (Recombinant human TRKC) [nM],IC50 [1] [nM],IC50 [2] [nM]
"O[C@H]1CCN(c2ccc(-c3c(Cl)cnc4ccc(N5C[C@@H](F)C[C@@H]5c5cc(F)ccc5F)nc34)cn2)C1 [Example 66, (S)-1-(5-(3-chloro-6-((2R,4S)-2-(2,5-difluorophenyl)-4-fluoropyrrolidin-1-yl)-1,5-naphthyridin-4-yl)pyridin-2-yl)pyrrolidin-3-ol]",< 1,< 10,< 10,< 10,< 10
"Fc1ccc(F)c([C@H]2C[C@H](F)CN2c2ccc3ncc(Cl)c(-c4noc(C5CCNCC5)n4)c3n2)c1 [Example 51, 3-(3-Chloro-6-((2R,4S)-2-(2,5-difluorophenyl)-4-fluoropyrrolidin-1-yl)-1,5-naphthyridine-4-yl)-5-(piperidin-4-yl)-1,2,4-oxadiazole]",< 1,< 1,< 1,< 1,< 1
"O[C@H]1CCN(c2cnn(-c3ncnc4ccc(N5C[C@@H](F)C[C@@H]5c5cc(F)ccc5F)nc34)c2)C1 [Example 70, (S)-1-(1-(6-((2R,4S)-2-(2,5-difluorophenyl)-4-fluoropyrrolidin-1-yl)pyrido[3,2-d]pyrimidin-4-yl)-1H-pyrazol-4-yl)pyrrolidin-3-ol]",< 1,< 1,< 1,< 10,< 10
"OC[C@@H](O)CN1CCC(n2cc(-c3c(Cl)cnc4ccc(N5C[C@@H](F)C[C@@H]5c5cc(F)ccc5F)nc34)cn2)CC1 [Example 44, (S)-3-(4-(4-(3-chloro-6-((2R,4S)-2-(2,5-difluorophenyl)-4-fluoropyrrolidin-1-yl)-1,5-naphthyridin-4-yl)-1H-pyrazol-1-yl)piperidin-1-yl)propane-1,2-diol]",< 1,< 1,< 1,< 10,< 1
"Fc1ccc(F)c([C@H]2C[C@H](F)CN2c2ccc3ncc(Cl)c(-c4nnc(C5CCNCC5)o4)c3n2)c1 [Example 42, 2-(3-Chloro-6-((2R,4S)-2-(2,5-difluorophenyl)-4-fluoropyrrolidin-1-yl)-1,5-naphthyridin-4-yl)-5-(piperidin-4-yl)-1,3,4-oxadiazole]",< 1,< 1,< 1,< 10,< 10
"CC1(C)CC(n2cc(-c3ccnc4ccc(N5CCC[C@@H]5c5cc(F)ccc5F)nc34)cn2)CCN1 (stereo partly drawn) [Example 17, 2-((R)-2-(2,5-difluorophenyl)pyrrolidin-1-yl)-8-(1-(2,2-dimethylpiperidin-4-yl)-1H-pyrazol-4-yl)-1,5-naphthyridine]",< 1,< 10,< 10,< 10,< 50
"O[C@H]1CCN(C(=S)Nc2ccnc3ccc(N4C[C@@H](F)C[C@@H]4c4cc(F)ccc4F)nc23)C1 [Example 79, (S)-N-(6-((2R,4S)-2-(2,5-difluorophenyl)-4-fluoropyrrolidin-1-yl)-1,5-naphthyridin-4-yl)-3-hydroxypyrrolidine-1-methylthioamide]",< 1,< 1,< 1,< 1,< 10
"CC1(C)CC(n2cc(-c3ccnc4ccc(N5C[C@@H](F)C[C@@H]5c5cc(F)ccc5F)nc34)cn2)CCN1 (stereo partly drawn) [Example 18, 2-((2R,4S)-2-(2,5-difluorophenyl)-4-fluoropyrrolidin-1-yl)-8-(1-(2,2-dimethylpiperidin-4-yl)-1H-pyrazol-4-yl)-1,5-naphthyridine]",< 1,< 1,< 1,< 10,< 10
"Fc1ccc(F)c([C@H]2C[C@H](F)CN2c2ccc3nccc(-c4cnn(C5CCNCC5)c4)c3n2)c1 [Example 11, 2-((2R,4S)-2-(2,5-difluorophenyl)-4-fluoropyrrolidin-1-yl)-8-(1-(piperidin-4-yl)-1H-pyrizol-4-yl)-1,5-naphthyridine]",< 1,< 1,< 1,< 1,< 1
Fc1ccc(F)c([C@H]2CCCN2c2ccc3ncc(F)c(-c4cnn(C5CCNCC5)c4)c3n2)c1 [Example 21],< 1,< 1,< 1,< 1,< 10
"Fc1ccc(F)c([C@H]2C[C@H](F)CN2c2ccc3ncc(Cl)c(-c4cnn(C5CCNCC5)n4)c3n2)c1 [Example 41, 7-chloro-2-((2R,4S)-2-(2,5-difluorophenyl)-4-fluoropyrrolidin-1-yl)-8-(2-(piperidin-4-yl)-2H-1,2,3-triazol-4-yl)-1,5-naphthyridine]",< 1,< 1,< 1,< 10,< 1
CC(C)N1CCC(n2cc(-c3ccnc4ccc(N5C[C@@H](F)C[C@@H]5c5cc(F)ccc5F)nc34)cn2)CC1 [Example 14],< 1,< 10,< 1,< 1,< 50
"Fc1ccc(F)c([C@H]2C[C@H](F)CN2c2ccc3ncc(F)c(-c4noc(C5CCNCC5)n4)c3n2)c1 [Example 73, 3-(6-((2R,4S)-2-(2,5-difluorophenyl)-4-fluoropyrrolidin-1-yl)-3-fluoro-1,5-naphthyridin-4-yl)-5-(piperidin-4-yl)-1,2,4-oxadiazole]",< 1,< 10,< 10,< 10,< 10
"CC(C)(O)Cn1cc(-c2c(Cl)cnc3ccc(N4C[C@@H](F)C[C@@H]4c4cc(F)ccc4F)nc23)cn1 [Example 35, 1-(4-(3-chloro-6-((2R,4S)-2-(2,5-difluorophenyl)-4-fluoropyrrolidin-1-yl)-1,5-naphthyridin-4-yl)-1H-pyrazol-1-yl)-2-methylpropan-2-ol]",< 1,< 1,< 1,< 10,< 10
"OC1CCC(Nc2ccnc3ccc(N4C[C@@H](F)C[C@@H]4c4cc(F)ccc4F)nc23)C1 (stereo partly drawn) [Example 2, 3-((6-((2R,4S)-2-(2,5-difluorophenyl)-4-fluoropyrrolidin-1-yl)-1,5-naphthyridin-4-yl)amino)cyclopentan-1-ol]",< 10,< 10,< 10,< 10,< 10
"O[C@@H]1CN=C(Nc2ccnc3ccc(N4C[C@@H](F)C[C@@H]4c4cc(F)ccc4F)nc23)OC1 [Example 98, (R)-2-((6-((2R,4S)-2-(2,5-difluorophenyl)-4-fluoropyrrolidin-1-yl)-1,5-naphthyridin-4-yl)amino)-5,6-dihydro-4H-1,3-oxazin-5-ol]",< 1,< 1,< 1,< 1,< 1
"N#Cc1cnc2ccc(N3C[C@@H](F)C[C@@H]3c3cc(F)ccc3F)nc2c1-c1cnn(C2CCNCC2)c1 [Example 36, 6-((2R,4S)-2-(2,5-difluorophenyl)-4-fluoropyrrolidin-1-yl)-4-(1-(piperidin-4-yl)-1H-pyrazol-4-yl)-1,5-naphthyridin-3-carbonitrile]",< 1,< 1,< 1,< 10,< 10
